# Test results from patent US20230095912A1, “Composition and Methods for Selective Degradation of Engineered Proteins” (Celgene Corporation, priority 2021, published 2023).
# Experiments:
# ePL-tagged Ikaros = target: T1, ePL-tagged Ikaros (Homo sapiens, UniProt Q13422+Q96SW2); assay: ePL-tagged substrate degradation in DF15 multiple myeloma cells; type: cell-based; conditions: read-out: EC50; Ikaros; DF15 cells, 4 hours
# T1 construct: expressed in transfected cells
# Method: (§1) DF15 multiple myeloma cells stably expressing ePL-tagged Aiolos, Ikaros, or GSPT1, and MDS-L cells stably expressing ePL-tagged CK1a were generated via lentiviral infection with pLOC-ePL-Aiolos (or Ikaros, GSPT1, or CK1a). […] Compounds were dispensed by an acoustic dispenser (ATS acoustic transfer system from EDC Biosystems) into a 384-well plate in a 10-point dose response curve using 3-fold dilutions starting at 10 μM and going down to […]. Then, 25 μL of media (RPMI-1640+10% heat inactivated FBS+25 mM Hepes+1 mM Na pyruvate+1× NEAA+1×Pen Strep Glutamine) containing 5000 of DF15 or MSD-L cells was dispensed per well. Assay plates were incubated at 37° C. with 5% CO2 for 4 hours except 20 hours for GSPT1. After incubation, 25 μL of the InCELL Hunter detection reagent working solution (DiscoverX, catalogue no. 96-0002, Fremont, Calif.) was added to each well and incubated at room temperature for 60 min protected from light. After 60 min, luminescence was read on an Envision or PHERAstar luminescence reader.
# (§2) To determine the EC50 value of a compound for the degradation of a given substrate (concentration of compound that achieves half the maximum degradation observed), a four-parameter logistic model (sigmoidal dose—response model) (FIT=(A+{(B−A)/1+[(C/x)D]})) where C is the inflection point (EC50), D is the […], and A and B are the low and high limits of the fit, respectively) was used. All substrate degradation curves were processed and evaluated using ActivityBase (IDBS), a data analysis software package. Ymin is minimum percent protein remaining.
# ePL-tagged GSPT1 = target: T2, ePL-tagged GSPT1 (Homo sapiens, UniProt P15170+Q96SW2); assay: as above; type: cell-based; conditions: read-out: EC50; GSPT1; DF15 cells, 20 hours
# T2 construct: expressed in transfected cells
# Method: as §1, §2
# [1] = target: CAR tagged with WT ZNF2_3 (Homo sapiens, UniProt Q13422+Q96SW2); conditions: higher Compound A concentrations
# Method: The IKZF1-ZNF2 degron was further modified to promote improved CAR degradation. Untagged CAR and CAR tagged with the original IKZF1-ZNF2 degrons were tested alongside alternate orientations and combinations of IKZF1 ZNF1, ZNF2, and ZNF3 (FIG. 5A). Each CAR included a CD28 transmembrane domain, a 4-1BB costimulatory domain, and a CD3 (CD3z) signaling domain. The IKZF1 degrons were fused to the C-terminus. […] A lentiviral vector encoding untagged CD19 CAR or CAR tagged with various configurations of IKZF1-ZNFs was transduced into the Jurkat cell line. Transduced cells were first co-cultured with a CD19-expressing K562 target cell line at 37° C. for 7.5 hours, and normalized levels of tdTomato reporter were assessed by flow cytometry.
# [2] = target: IKZF1 ZNF2-tagged CD19 CAR (Homo sapiens, UniProt Q13422+Q96SW2); conditions: jurkat, 1440 min
# [3] = target: IKZF1 ZNF2_3 tagged CD19 CAR (Homo sapiens, UniProt Q13422+Q96SW2); conditions: 100 nM pre-treatment 48 hours, co-culture with CD19-expressing K562 8 hours
# Method: Function of IKZF1 ZNF2 tagged CD19 CAR T cells (FIG. 2, ZNF2 amino acid sequence of SEQ ID NO: 15) was evaluated in a reporter assay, in which Jurkat cells have been engineered to express tdTomato when the Nur77 gene, associated with CAR and TCR activation, is actively transcribed (FIG. 3). Lentiviral vectors encoding ZNF-tagged CD19 CAR, untagged CD19 CAR, or an untagged BCMA CAR negative control were transduced into the Jurkat reporter cell line. Transduced cells were then co-cultured with a CD19-expressing K562 target cell line at 37° C. Levels of tdTomato, both in the form of mean fluorescence intensity (MFI) and the overall percent of positive cells, were assessed by flow cytometry every 2 hours for 12 hours.
# A lentiviral vector encoding ZNF2_3 tagged or untagged CD19 CAR (see Example 2) was transduced into the reporter cell line. […] Levels of tdTomato in the form of mean fluorescence intensity (MFI) (FIG. 6B) and the overall percent of positive cells, as well as normalized CAR levels (FIG. 6C), were assessed by flow cytometry (FIG. 6A).
# [4] = system: WT IKZF1 ZNF2_3-tagged CARs; assay: Erk phosphorylation (pErk) western blot after CAR degradation in Jurkat cells; type: cell-based, human; conditions: 1 mM pretreatment 12 hours, co-culture with CD19-expressing K562 30 minutes
# Method: Abrogation of signaling with CAR degradation was assessed by measuring activation of the downstream MAPK signaling pathway. Jurkat cells were transduced with untagged, WT degron-tagged, or G6N degron-tagged CAR as described above.
# [5] = system: CAR tagged with ZNF2_3 containing a G6N mutation; assay: Compound A titration on Jurkat cells with CAR tagged with ZNF2_3 G6N mutant degron; type: cell-based, human; conditions: any dose
# Source text: The IKZF1 degrons were fused to the C-terminus. See SEQ ID NOs: 53-57. […] This configuration was therefore selected for further testing.
# ePL-tagged CK1a = target: T3, ePL-tagged CK1a (Homo sapiens, UniProt P48729+Q96SW2); assay: ePL-tagged substrate degradation in MDS-L cells; type: cell-based
# T3 construct: expressed in transfected cells
# Method: as §1, §2
# Aurora A = conditions: 1 μM, 16 hours, knock-in Jurkat cells
# Source text: (§3) The ability to knock degron tags in-frame into genomic loci to allow for compound-mediated modulation of endogenous protein levels was explored. Adeno-associated viral vectors were designed to deliver IKZF1 ZNF2_3-V5 tag-T2A-muThy1.1 tags to be knocked in-frame into the AURA (FIG. […]) or TOX locus (FIG. 20C-20D) in Jurkat cells in both the N- and C-terminal orientations. Jurkats were then electroporated with Cas9/guide RNA ribonucleoproteins. […] Cells were then pelleted, lysed, run on a denaturing protein gel, transferred to a membrane, probed with antibody and visualized with film.
# tagged TOX = conditions: 1 μM, 16 hours, knock-in Jurkat cells
# Source text: as §3
# T3 sequence (P48729 whole entry): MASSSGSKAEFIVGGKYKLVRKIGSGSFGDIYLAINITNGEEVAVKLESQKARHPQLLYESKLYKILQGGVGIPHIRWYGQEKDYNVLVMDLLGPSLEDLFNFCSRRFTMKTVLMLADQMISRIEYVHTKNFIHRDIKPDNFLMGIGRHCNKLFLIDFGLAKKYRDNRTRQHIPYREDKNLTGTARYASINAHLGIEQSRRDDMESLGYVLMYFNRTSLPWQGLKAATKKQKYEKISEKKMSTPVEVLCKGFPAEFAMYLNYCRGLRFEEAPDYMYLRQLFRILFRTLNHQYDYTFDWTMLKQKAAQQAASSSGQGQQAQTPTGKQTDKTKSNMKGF
# T3 sequence (Q96SW2 whole entry): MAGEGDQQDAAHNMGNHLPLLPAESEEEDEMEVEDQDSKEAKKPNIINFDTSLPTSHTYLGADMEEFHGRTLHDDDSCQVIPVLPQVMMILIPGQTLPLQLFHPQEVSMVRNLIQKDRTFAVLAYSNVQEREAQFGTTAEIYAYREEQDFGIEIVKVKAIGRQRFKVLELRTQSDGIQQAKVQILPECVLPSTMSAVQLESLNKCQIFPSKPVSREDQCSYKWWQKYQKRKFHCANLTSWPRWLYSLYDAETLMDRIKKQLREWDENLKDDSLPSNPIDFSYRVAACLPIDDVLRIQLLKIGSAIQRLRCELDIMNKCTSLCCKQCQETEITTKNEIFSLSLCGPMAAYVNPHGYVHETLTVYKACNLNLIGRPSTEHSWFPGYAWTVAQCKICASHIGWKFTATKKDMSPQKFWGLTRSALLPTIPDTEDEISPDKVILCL
# T3 sequence (Q16531 whole entry partner): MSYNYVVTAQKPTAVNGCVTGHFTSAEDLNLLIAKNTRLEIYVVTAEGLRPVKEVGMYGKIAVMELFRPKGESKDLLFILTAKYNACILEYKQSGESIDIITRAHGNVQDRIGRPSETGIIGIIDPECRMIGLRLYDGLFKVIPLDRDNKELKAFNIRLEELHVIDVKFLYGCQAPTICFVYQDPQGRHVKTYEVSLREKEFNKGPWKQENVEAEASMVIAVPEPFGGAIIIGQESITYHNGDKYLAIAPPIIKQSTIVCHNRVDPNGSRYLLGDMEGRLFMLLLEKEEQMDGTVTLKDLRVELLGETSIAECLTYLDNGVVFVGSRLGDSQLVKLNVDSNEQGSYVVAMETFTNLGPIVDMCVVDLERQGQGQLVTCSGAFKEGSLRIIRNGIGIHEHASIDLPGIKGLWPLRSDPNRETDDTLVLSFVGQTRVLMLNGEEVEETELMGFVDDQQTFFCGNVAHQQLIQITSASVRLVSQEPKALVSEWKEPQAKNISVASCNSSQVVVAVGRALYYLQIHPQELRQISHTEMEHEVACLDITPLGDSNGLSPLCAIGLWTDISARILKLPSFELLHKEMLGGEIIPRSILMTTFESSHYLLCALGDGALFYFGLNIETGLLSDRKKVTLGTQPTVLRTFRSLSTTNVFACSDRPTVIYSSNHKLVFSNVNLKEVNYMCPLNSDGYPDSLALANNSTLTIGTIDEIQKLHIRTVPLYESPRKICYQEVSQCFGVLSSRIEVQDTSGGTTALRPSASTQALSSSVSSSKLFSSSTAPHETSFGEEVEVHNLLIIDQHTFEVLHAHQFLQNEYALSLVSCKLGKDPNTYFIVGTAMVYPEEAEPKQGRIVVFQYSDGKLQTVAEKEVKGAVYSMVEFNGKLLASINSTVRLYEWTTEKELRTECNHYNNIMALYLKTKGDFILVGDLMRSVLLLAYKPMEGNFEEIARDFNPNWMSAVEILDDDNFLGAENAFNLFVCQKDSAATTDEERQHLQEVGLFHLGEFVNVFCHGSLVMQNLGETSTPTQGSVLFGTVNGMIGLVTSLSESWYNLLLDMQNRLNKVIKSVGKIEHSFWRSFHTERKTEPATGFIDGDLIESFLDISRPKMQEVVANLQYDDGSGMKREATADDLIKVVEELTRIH
# Chain of CAR tagged with WT ZNF2_3 (Q13422 other isoform, or with tags, fused parts or gaps): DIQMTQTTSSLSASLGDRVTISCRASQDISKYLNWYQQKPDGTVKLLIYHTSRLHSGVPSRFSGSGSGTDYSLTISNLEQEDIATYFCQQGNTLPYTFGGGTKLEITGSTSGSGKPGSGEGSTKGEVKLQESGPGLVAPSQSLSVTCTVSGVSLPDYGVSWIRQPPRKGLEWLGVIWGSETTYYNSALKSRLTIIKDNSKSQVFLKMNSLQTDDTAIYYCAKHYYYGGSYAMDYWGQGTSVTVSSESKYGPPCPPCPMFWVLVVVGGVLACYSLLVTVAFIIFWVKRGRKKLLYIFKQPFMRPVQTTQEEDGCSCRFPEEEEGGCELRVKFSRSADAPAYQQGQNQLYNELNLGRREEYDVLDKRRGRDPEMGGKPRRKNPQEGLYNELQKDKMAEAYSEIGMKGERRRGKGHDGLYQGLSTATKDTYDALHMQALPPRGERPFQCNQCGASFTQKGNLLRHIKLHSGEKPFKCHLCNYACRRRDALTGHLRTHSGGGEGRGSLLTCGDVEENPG
# Chain of CAR tagged with WT ZNF2_3 (Q96SW2 whole entry): as the sequence (Q96SW2 whole entry) above
# Chain of CAR tagged with WT ZNF2_3 (Q16531 whole entry, further chain): as the sequence (Q16531 whole entry partner) above
# T1 sequence (Q13422 whole entry): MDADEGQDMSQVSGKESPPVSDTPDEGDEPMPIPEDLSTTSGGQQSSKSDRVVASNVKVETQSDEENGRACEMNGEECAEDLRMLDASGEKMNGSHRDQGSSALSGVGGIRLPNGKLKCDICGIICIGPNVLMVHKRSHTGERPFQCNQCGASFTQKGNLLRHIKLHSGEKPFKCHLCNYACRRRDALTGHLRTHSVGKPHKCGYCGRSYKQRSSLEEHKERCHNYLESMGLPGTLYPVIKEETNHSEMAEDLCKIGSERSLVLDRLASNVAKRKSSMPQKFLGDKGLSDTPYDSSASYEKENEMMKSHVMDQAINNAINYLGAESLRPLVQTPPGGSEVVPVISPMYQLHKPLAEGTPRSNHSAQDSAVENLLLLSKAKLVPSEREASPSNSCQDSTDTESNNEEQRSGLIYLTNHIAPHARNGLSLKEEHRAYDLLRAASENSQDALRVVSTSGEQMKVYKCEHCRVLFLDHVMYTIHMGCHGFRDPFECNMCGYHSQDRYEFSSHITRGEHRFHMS
# T1 sequence (Q96SW2 whole entry): as the sequence (Q96SW2 whole entry) above
# T1 sequence (Q16531 whole entry partner): as the sequence (Q16531 whole entry partner) above
# T2 sequence (P15170 whole entry): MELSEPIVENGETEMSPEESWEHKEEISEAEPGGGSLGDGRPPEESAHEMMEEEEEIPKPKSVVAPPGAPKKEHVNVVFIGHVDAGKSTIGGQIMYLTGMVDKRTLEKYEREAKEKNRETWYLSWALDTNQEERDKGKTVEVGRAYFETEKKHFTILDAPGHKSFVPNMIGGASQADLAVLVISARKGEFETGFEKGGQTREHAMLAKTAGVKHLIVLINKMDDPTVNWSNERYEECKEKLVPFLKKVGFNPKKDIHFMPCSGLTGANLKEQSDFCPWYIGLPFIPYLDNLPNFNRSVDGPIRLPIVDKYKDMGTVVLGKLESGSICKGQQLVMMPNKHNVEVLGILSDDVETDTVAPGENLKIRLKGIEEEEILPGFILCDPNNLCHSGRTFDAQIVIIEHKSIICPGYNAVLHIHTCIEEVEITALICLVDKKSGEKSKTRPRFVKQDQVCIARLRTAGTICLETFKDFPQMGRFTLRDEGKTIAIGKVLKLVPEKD
# T2 sequence (Q96SW2 whole entry): as the sequence (Q96SW2 whole entry) above
# T2 sequence (Q16531 whole entry partner): as the sequence (Q16531 whole entry partner) above
# Chain of IKZF1 ZNF2-tagged CD19 CAR (Q13422 other isoform, or with tags, fused parts or gaps): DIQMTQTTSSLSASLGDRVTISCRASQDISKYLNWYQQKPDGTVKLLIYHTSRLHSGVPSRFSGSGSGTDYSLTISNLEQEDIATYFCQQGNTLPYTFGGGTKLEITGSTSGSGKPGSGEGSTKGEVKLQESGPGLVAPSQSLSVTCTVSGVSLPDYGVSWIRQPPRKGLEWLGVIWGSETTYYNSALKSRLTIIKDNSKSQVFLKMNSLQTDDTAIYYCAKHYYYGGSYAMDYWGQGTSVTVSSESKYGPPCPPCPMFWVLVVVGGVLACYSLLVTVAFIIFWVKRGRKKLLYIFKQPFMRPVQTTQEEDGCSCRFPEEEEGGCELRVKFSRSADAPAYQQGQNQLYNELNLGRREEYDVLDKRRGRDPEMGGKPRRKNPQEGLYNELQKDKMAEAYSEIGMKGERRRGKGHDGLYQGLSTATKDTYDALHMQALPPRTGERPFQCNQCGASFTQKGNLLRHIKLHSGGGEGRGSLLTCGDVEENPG
# Chain of IKZF1 ZNF2-tagged CD19 CAR (Q16531 whole entry, further chain): as the sequence (Q16531 whole entry partner) above
# Chain of IKZF1 ZNF2-tagged CD19 CAR (Q96SW2 whole entry): as the sequence (Q96SW2 whole entry) above
# Chain of IKZF1 ZNF2_3 tagged CD19 CAR (Q96SW2 whole entry): as above
# Chain of IKZF1 ZNF2_3 tagged CD19 CAR (Q16531 whole entry, further chain): as the sequence (Q16531 whole entry partner) above
smiles,measurement,setting,value
O=C1CCC(N2Cc3c(OCc4ccc(CN5CCN(c6ccc(F)cc6F)CC5)cc4)cccc3C2=O)C(=O)N1 (centres unmarked) [Compound A],DC50,ePL-tagged Ikaros,0.022 µM
same,DC50,ePL-tagged GSPT1,0.039 µM
same,CAR degradation (WT ZNF2_3 degron),[1],deep CAR degradation
same,CAR degradation,[2],~55%
same,inhibition of CAR activity,[3],strongly inhibit CAR activity
same,Erk phosphorylation (pErk),[4],attenuated
same,response of G6N mutant tagged CAR,[5],failed to respond
same,degradation of CK1a (in words),ePL-tagged CK1a,degraded CK1a to a significant extent
same,DC50,"ePL-tagged CK1a; read-out: EC50, CK1a, MDS-L cells, 4 hours",0.19 µM
same,Aurora A levels (western blot),Aurora A,decreased
same,tagged TOX levels (western blot),tagged TOX,decreased
